Assays:
CXCR4-B16 cells [1] = test: arrest of CXCR4-B16 cells on VCAM-1/Ig-coated plates under flow; type: cell-based, murine; settings: CXCR4-B16 on plates co-coated with VCAM-1/Ig and 1 μg/ml chemokine; 1.5 dynes/cm^2
Method: Cell suspension plates (35 mm, Model # 430588, Corning Inc., NY) were coated with human VCAM-1/IgG chimera (1 μg/ml) overnight at 4° C. in Tris-buffered saline (Maki et al., Immunol. 169:2346-2353 (2002)). Plates were then briefly rinsed with PBS, co-coated with 1 μg/ml of CXCL12, CCL19, or no chemokine in PBS for 2 hr at 4° C., and blocked with 1% BSA/PBS for 1 hr at 4° C. Calcein-acetomethyl (AM)-labeled (Molecular Probes, Eugene, Oreg.) CXCR4-B16 or pLNCX2-B16 cells (2.5×10^5 cells/ml in cDMEM) were injected at 1.5 dynes/cm^2 into a parallel plate flow chamber (Glycotech, Gaithersburg, Md.) that had been placed over the adhesion molecule- and/or chemokine-coated suspension plate.
For dynamic assays on recombinant molecule-coated plates as well as on LMEC, tumor cells were introduced into the chamber under a constant shear stress of 1.5 dynes/cm^2 without allowing cells to settle at any time during the assay. Ten min after flow was initiated, arrested cells were digitally photographed (without flow being decreased) in 4-6 random fields (each field=1.18 mm^2) with excitation at 488 nm and emission at 513 nm using sufficient exposure time (˜1 s) to allow distinction between moving cells, which appeared as dim streaks, and stationary cells. Cells were then enumerated with the software program IPlab (Scanalytics, Fairfax, Va.). […]

CXCR4-B16 cells [2] = test: adhesion of CXCR4-B16 cells to resting DMEC in parallel plate flow chamber; type: cell-based, murine; settings: DMEC exposed to 100 ng/ml chemokine for 15 min; 1.5 dynes/cm^2
Method: Prior to interaction with tumor cells, resting confluent DMEC or LMEC were exposed to 100 ng/ml of recombinant CXCL12 or CCL21 for 15 min at 20° C. as described (Cinamon et al., Nat. Immunol. 2: 515-22 (2001)). After unbound chemokine was washed away, calcein-AM-labeled (Molecular Probes, Eugene, Oreg.) CXCR4- or pLNCX2-B16 cells (2.5×10^5/ml in B16 medium) were injected at 1.5 dynes/cm^2 into a parallel plate flow chamber (Glycotech, Gaithersburg, Md.) containing confluent DMEC or LMEC. In some cases, tumor cells were treated with pertussis toxin (PTX, Calbiochem, San Diego, Calif.) at 100 ng/ml for 2 hours at 37° C. to block Gi-protein-coupled signaling. After two min, flow was stopped, which enabled B16 cells to interact with MEC in the absence of shear stress. After 5 min, shear was re-established at 1.5 dynes/cm^2 for up to 2 min in order to detach unbound cells; adherent cells were digitally photographed in 5-6 random fields (each field=1.18 mm^2) with excitation at 488 nm and emission at 513 nm using sufficient exposure time (˜1 s) to allow distinction between non-moving and moving cells (which appeared as dim streaks) (Fitzhugh et al. (2000), supra). Cells were then counted with the software program IPlab (Scanalytics, Fairfax, Va.). […]

CXCR4-B16 cells [3] = test: growth of CXCR4-B16 cells under low serum conditions in vitro; type: cell-based, murine; settings: for effect of peptide alone on growth: T22 or ALA alone; for cell count CXCR4-B16 24 h / cell count CXCR4-B16 48 h: low serum (0.5% FCS); for block of growth stimulated by CXCL12: low serum, in the presence of CXCL12
Method: (§1) CXCR4- and pLNCX2-B16 cells (2×10^4 cells/well) were cultured in triplicate for 24 hr in 24-well plates containing B16 growth medium (DMEM, 10% FCS). After rinsing the cells in serum-free DMEM, the B16 cells were incubated for 40 hr at 37° C. in DMEM containing low serum (0.5% FCS). At this point, CXCL12 (500 ng/ml) was added to the cells by itself or with either T22 or control ALA peptide at 1 μg/ml for the indicated times. Cells were then harvested at 24 or 48 hr later and counted by a hemacytometer.

pLNCX2-B16 cells [4] = test: growth of pLNCX2-B16 cells under low serum conditions in vitro; type: cell-based, murine; settings: for cell count pLNCX2-B16 24 h / cell count pLNCX2-B16 48 h: low serum (0.5% FCS); for effect on growth of pLNCX2-B16 cells: under either low or high serum conditions
Method: as §1

CXCR4-B16 cells [5] = test: pulmonary metastasis after i.v. injection of CXCR4-B16 cells (lung luciferase assay); type: in vivo, mice; settings: for effect on pulmonary metastasis: CXCR4-B16-injected mice; for effect on pulmonary metastasis / Average weight: 4 μg peptide i.p. daily; for Luciferase activity (RLU): lung, 4 μg peptide/mouse i.p. daily; for Luciferase activity (RLU) / Average weight: CXCR4-B16 cells i.v.; for Average weight: mass of the lungs; for Average Relative Luciferase Units: CXCR4-B16 i.v., 14-day assay
Method: (§2) Luciferase activity was measured using a Luciferase Reporter assay system (Promega, Madison, Wis.). Cultured cells were lysed with 100 μl of undiluted lysis buffer and then assayed in the presence of luciferin using a Thermo Labsystems MLX 96-well luminometer (Helsinki, Finland). Units are in arbitrary light units. For tissue assays, organs from each animal were homogenized in 1 ml of lysis buffer, of which 25 μl aliquots were then assayed in duplicate. Means of duplicates were used to represent the luciferase activity for a given tissue from a particular animal. Five to ten animals per experimental treatment group were used for typical experiments.
(§3) CXCR4- and pLNCX2-B16 cells in exponential growth phase were harvested by trypsinization and washed twice in PBS prior to injection. Cell viability was >95% as determined by trypan blue dye exclusion. For the footpad (i.e., subcutaneous) injection, B16 cells (4×10^5 cells in 20 μl PBS) were subcutaneously injected into the left footpads of C57BL/6 mice. Tumor growth was monitored three times per week by measurement of two maximum perpendicular tumor diameters. When tumors reached 5-7 mm in size, animals were euthanized prior to harvesting of lung and LN. Popliteal LN were removed by gently pulling skin (including the dermis and subcutaneous fat) above the popliteal fossa and carefully exposing the LN resting in the adipose tissue of the fossa with a pair of forceps. For intravenous injection, 4×10^5 CXCR4- or pLNCX2-B16 cells in 200 μl were injected into the tail veins of mice. T22 and ALA peptides in sterile PBS were administered via an intraperitoneal (i.p.) route using 4 μg peptide/mouse daily for the indicated duration of treatment. Experiments were performed 2-4 times each with similar trends.
To determine whether T22 would inhibit the CXCR4-mediated increase in metastasis, mice were injected intravenously with CXCR4-B16 and pLNCX2-B16 cells. Subgroups of CXCR4-B16 mice were treated daily with 4 μg of either T22 or ALA control peptide. CXCR4-B16 cells accumulated in greater numbers in the lung compared to pLNCX2-B16 cells (Table 4), confirming the results described in Example 2.
It has been shown that the CXCR4 inhibitory peptide, T22, blocked pulmonary metastasis of CXCR4-B16 cells when this CXCR4 inhibitor was used daily throughout the course of the 14-day metastastis assay (Murakami et al., Cancer Res. 62:7328-7334 (2002)). To determine if short-term treatment with T22 was also effective in blocking metastasis, the in vivo assay described in Murakami et al., Cancer Res. 62:7328-7334 (2002), was modified and the drug was only given for the first two days of the 14-day waiting period following i.v. injection of CXCR4-B16 and pLNCX2-B16 cells. In one group of animals, the CXCR4 antagonist peptide T22 was administered intraperitoneally (i.p.) shortly after tumor inoculation and again 24 hours later. In another group of CXCR4-B16-injected mice, T22 was given daily for 14 days.
To determine whether T22 treatment during the last 7 days of the metastasis assay could reduce tumor burden, T22 was given daily either during the entire 2-week treatment period or for just the second week (Table 9).
CXCR4-B16 and pLNCX2-B16 cells in exponential growth phase were harvested by trypsinization and washed twice in PBS before injection. Cell viability was >95% as determined by trypan blue dye exclusion. CXCR4-B16 or pLNCX2-B16 cells (4×10^5 in 200 μl PBS) were then injected into the tail veins of mice. T22 and ALA peptides in sterile PBS were administered via an i.p. route using 4 μg peptide/mouse daily for the indicated duration of treatment as described (Murakami et al., Cancer Res. 62:7328-7334 (2002)). Mice were euthanized after 14 days for gross inspection of lungs and luciferase quantification of metastasis by luciferase activity (Murakami et al., Cancer Res. 62:7328-7334 (2002)). […]

[6] = tested on: activated bone-marrow-derived dendritic cells; test: in vitro chemotaxis of dendritic cells to CXCL12; type: cell-based; settings: T22 500 ng/ml; 200 ng/ml of CXCL12
CXCR4-B16 cells [7] = test: growth of CXCR4-B16 cells injected into the footpad; type: in vivo, mice; settings: compared to either PBS or ALA
Method: as §3

pLNCX2-B16 cells [8] = test: pulmonary metastasis after i.v. injection of pLNCX2-B16 cells (lung luciferase assay); type: in vivo; settings: pLNCX2-B16-injected mice
Method: as §2
CXCR4- and pLNCX2-B16 cells in exponential growth phase were harvested by trypsinization and washed twice in PBS prior to injection. Cell viability was >95% as determined by trypan blue dye exclusion. […] Tumor growth was monitored three times per week by measurement of two maximum perpendicular tumor diameters. […]
CXCR4-B16 and pLNCX2-B16 cells in exponential growth phase were harvested by trypsinization and washed twice in PBS before injection. Cell viability was >95% as determined by trypan blue dye exclusion. […] Mice were euthanized after 14 days for gross inspection of lungs and luciferase quantification of metastasis by luciferase activity (Murakami et al., Cancer Res. 62:7328-7334 (2002)). […]

[9] = peptide 1 μg/ml together with SDF-1 (CXCL12 500 ng/ml)
[10] = treatment alone, CXCL12 500 ng/ml, peptide 1 μg/ml

Row | Substance | effect of peptide alone on growth (CXCR4-B16 cells [3]) | cell count CXCR4-B16 24 h (CXCR4-B16 cells [3]; [9]) | cell count CXCR4-B16 48 h (CXCR4-B16 cells [3]; [9]) | cell count CXCR4-B16 24 h (CXCR4-B16 cells [3]; [10]) | cell count CXCR4-B16 48 h (CXCR4-B16 cells [3]; [10]) | block of growth stimulated by CXCL12 (CXCR4-B16 cells [3]) | cell count pLNCX2-B16 24 h (pLNCX2-B16 cells [4]; [9]) | cell count pLNCX2-B16 48 h (pLNCX2-B16 cells [4]; [9]) | cell count pLNCX2-B16 24 h (pLNCX2-B16 cells [4]; [10]) | cell count pLNCX2-B16 48 h (pLNCX2-B16 cells [4]; [10]) | effect on growth of pLNCX2-B16 cells (pLNCX2-B16 cells [4]) | effect on pulmonary metastasis (CXCR4-B16 cells [5]) | Luciferase activity (RLU) (CXCR4-B16 cells [5]) | Average weight (CXCR4-B16 cells [5]) | block of in vitro chemotaxis to CXCL12 [6] | further results
1 | CCL19: an unrelated chemokine used as control | – | – | – | – | – | – | – | – | – | – | – | – | – | – | – | Mean adherent cells/field (CXCR4-B16 cells [1]): 17.2 cells/field; adherent B16-CXCR4 cells on DMEC (Table 6) (CXCR4-B16 cells [2]): 6.8
2 | H-KWAFRVAYRGIAYRRAR-OH [ALA, reference compound] | did not significantly alter growth | 16.0 ± 1.0 | 33.3 ± 6.7 | 12.0 ± 0.1 | 22.3 ± 1.2 | but not by the control peptide | 10.7 ± 2.9 | 22.7 ± 3.2 | 10.0 ± 1.0 | 20.3 ± 3.5 | did not affect the growth | no effect | 43928 ± 29729 RLU | 0.88 g | no inhibitory effect | –
3 | NH2-RRWCYRKCYKGYCYRKCR-COOH (H-RRWCYRKCYKGYCYRKCR-OH; cysteine pairing not given here) [T22] | did not significantly alter growth | 12.7 ± 2.1 | 20.7 ± 3.0 | 11.0 ± 1.0 | 22.0 ± 1.0 | could be blocked | 12.3 ± 0.6 | 21.7 ± 3.2 | 10.7 ± 1.2 | 21.0 ± 1.0 | did not affect the growth | reduced metastasis to levels seen in pLNCX2-B16 injected mice | 1114 ± 956 RLU | 0.55 g | block specifically | effect on growth of cells injected into the footpad (CXCR4-B16 cells [7]): no significant effect on the growth; Average Relative Luciferase Units (CXCR4-B16 cells [5]; T22 daily 2nd week only): 81981.2 Relative Luciferase Units; Average Relative Luciferase Units (CXCR4-B16 cells [5]; T22 daily for 2 weeks): 15294.5 Relative Luciferase Units; protection against CXCR4-mediated pulmonary metastasis (CXCR4-B16 cells [5]; T22 i.p. for the first two days of the 14-day assay): as effective as giving T22 daily for the entire 2-week course; metastatic burden (CXCR4-B16 cells [5]; T22 treatment during the second week only): same metastatic burden as PBS (mock) treatment; effect on metastasis (pLNCX2-B16 cells [8]): did not block metastasis
